From patent publication US20250115669A1, “FGFR1/KLB Targeting Agonistic Antigen-Binding Proteins and Conjugates Thereof with GLP-1R Agonistic Peptides” (SANOFI, priority 2020, published 2025)
Bridge positions count the residues as written; N and C are the ends. Ends that are not written are not given here. Peptide text beside a SMILES is read from it.

What was measured:
Format in all cases: cell-based
[1] = biological target: T1, FGFR1c and co-receptor beta-Klotho (KLB) (Homo sapiens, UniProt P11362+Q86Z14); assay: Luciferase reporter gene assay (iLite FGF21 Assay Ready Cells), FGF21-like signaling; conditions: monovalent Fab versus bivalent antibody
T1 construct: host or cells: iLite FGF21 Assay Ready Cells (HEK293)
T1 sequence (Q86Z14 53-1044 limits assumed): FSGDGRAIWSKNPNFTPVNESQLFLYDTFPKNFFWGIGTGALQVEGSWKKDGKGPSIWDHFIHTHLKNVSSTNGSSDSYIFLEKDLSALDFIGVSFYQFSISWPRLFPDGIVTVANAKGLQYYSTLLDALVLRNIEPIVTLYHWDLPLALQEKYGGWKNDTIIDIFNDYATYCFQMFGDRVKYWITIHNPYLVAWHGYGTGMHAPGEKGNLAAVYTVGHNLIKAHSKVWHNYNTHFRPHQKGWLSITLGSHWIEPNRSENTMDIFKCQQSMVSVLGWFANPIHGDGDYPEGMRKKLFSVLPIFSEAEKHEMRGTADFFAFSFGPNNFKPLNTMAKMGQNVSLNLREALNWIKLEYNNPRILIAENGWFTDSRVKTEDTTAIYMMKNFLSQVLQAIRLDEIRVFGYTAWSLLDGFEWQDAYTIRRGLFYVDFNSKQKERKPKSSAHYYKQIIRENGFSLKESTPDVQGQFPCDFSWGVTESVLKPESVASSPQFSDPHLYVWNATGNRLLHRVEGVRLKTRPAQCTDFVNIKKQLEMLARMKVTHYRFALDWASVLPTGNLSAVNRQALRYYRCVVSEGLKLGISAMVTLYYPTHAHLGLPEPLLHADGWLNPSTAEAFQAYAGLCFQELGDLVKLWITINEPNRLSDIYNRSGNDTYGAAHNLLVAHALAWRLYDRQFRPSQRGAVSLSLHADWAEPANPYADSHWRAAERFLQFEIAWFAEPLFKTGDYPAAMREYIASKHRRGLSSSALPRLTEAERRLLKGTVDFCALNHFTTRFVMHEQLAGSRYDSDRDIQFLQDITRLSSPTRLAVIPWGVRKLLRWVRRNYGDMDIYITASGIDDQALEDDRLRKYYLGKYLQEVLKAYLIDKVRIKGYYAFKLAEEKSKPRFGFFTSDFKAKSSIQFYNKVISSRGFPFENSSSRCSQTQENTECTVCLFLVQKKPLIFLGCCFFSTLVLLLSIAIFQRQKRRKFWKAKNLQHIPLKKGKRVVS
T1 sequence (P11362 22-820 isoform P11362-2 limits assumed): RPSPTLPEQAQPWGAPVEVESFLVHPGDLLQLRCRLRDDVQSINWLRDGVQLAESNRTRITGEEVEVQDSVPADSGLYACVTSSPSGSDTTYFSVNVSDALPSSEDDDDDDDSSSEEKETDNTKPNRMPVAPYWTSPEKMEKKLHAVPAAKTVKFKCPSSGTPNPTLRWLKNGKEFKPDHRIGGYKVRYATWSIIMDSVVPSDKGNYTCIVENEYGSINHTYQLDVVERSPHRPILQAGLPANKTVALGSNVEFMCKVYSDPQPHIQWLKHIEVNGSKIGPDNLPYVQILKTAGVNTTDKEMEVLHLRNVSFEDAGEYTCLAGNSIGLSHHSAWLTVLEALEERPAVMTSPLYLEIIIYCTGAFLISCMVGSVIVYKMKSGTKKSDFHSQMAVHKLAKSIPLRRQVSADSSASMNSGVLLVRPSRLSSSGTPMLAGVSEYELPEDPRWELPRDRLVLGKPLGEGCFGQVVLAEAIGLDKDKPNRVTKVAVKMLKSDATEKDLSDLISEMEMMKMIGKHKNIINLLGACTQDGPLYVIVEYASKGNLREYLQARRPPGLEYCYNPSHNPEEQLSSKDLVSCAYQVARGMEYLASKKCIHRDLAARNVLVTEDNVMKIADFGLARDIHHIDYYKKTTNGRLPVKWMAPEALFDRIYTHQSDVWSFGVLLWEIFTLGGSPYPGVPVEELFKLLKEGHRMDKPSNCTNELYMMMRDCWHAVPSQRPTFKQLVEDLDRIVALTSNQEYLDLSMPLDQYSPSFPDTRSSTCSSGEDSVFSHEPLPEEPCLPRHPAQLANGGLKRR

[2] = biological target: T2, human GIP receptor (Homo sapiens, UniProt P48546); assay: HTRF cAMP assay in HEK-293 cells expressing human GIP receptor; conditions: HEK-293 cells; read-out: HTRF cAMP EC50 Human GIPR
T2 construct: expressed in transfected cells; host or cells: PSC-HEK-293
T2 sequence (P48546 22-466): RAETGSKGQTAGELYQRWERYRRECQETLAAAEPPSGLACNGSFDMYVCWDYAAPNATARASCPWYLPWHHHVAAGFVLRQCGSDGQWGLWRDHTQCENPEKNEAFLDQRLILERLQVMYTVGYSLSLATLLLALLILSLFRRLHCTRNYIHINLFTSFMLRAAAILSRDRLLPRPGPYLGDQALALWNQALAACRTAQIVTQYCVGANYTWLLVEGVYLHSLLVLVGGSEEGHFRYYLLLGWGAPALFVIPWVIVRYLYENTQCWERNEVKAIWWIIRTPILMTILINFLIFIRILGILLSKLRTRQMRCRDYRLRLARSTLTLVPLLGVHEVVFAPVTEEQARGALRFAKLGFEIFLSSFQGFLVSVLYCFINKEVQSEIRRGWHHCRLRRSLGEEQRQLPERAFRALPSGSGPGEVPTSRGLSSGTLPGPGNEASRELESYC

[3] = biological target: T3, human GLP-1 receptor (Homo sapiens, UniProt P43220); assay: HTRF cAMP assay in HEK-293 cells expressing human GLP-1 receptor; conditions: HEK-293 cells; read-out: HTRF cAMP EC50 Human GLP-1R
T3 construct: expressed in transfected cells; host or cells: PSC-HEK-293
T3 sequence (P43220 24-463): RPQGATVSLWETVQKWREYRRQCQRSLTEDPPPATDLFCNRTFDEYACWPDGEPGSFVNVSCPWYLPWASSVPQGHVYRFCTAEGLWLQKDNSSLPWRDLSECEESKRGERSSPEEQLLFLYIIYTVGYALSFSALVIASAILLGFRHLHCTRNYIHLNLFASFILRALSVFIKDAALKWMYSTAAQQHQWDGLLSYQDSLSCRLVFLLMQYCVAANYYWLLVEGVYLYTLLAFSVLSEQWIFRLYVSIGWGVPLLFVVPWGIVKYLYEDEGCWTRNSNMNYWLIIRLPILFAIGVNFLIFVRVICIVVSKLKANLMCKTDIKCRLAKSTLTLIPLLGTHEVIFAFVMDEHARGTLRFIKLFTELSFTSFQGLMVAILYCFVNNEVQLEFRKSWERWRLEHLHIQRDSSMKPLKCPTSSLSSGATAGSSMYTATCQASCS

[4] = biological target: T4, human glucagon (GCG) receptor (Homo sapiens, UniProt P47871); assay: HTRF cAMP assay in HEK-293 cells expressing human glucagon receptor; conditions: HEK-293 cells; read-out: HTRF cAMP EC50 Human GCGR
T4 construct: expressed in transfected cells; host or cells: PSC-HEK-293
T4 sequence (P47871 26-477): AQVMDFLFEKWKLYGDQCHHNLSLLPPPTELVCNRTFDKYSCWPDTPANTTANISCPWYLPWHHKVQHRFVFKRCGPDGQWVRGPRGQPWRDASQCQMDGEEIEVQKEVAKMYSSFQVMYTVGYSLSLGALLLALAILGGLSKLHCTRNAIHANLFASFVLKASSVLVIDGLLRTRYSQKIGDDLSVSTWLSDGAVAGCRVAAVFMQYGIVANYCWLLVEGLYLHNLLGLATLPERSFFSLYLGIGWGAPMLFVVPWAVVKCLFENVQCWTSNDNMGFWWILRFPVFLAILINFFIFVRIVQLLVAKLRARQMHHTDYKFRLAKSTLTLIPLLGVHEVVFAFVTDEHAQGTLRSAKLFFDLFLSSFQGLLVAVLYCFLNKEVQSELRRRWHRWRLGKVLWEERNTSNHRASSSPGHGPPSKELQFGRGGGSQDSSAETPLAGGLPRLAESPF

FGF21-like activity in Luciferase gene reporter assay (in words) [1]	EC50 [2] [nM]	EC50 [3] [nM]	EC50 [4] [nM]	Molecule
inactive				16H7-Fab: monovalent Fab fragment (antigen-binding fragment) of 16H7 [Ab 16H7-Fab, reference compound]
	> 10	0.0325	> 10	CC[C@H](C)[C@H](NC(=O)[C@H](Cc1ccccc1)NC(=O)[C@H](CC(C)C)NC(=O)[C@H](CCC(N)=O)NC(=O)[C@@H](NC(=O)[C@H](C)NC(=O)[C@H](CCC(=O)O)NC(=O)[C@H](CCC(=O)O)NC(=O)[C@H](CCC(=O)O)NC(=O)[C@H](CC(C)C)NC(=O)[C@H](CCC(N)=O)NC(=O)[C@H](CCCCN)NC(=O)[C@H](CO)NC(=O)[C@H](CC(C)C)NC(=O)[C@H](CC(=O)O)NC(=O)[C@H](CO)NC(=O)[C@@H](NC(=O)[C@H](Cc1ccccc1)NC(=O)[C@@H](NC(=O)CNC(=O)[C@H](CCC(=O)O)NC(=O)CNC(=O)[C@H](Cc1c[nH]cn1)NC(=O)CN)[C@@H](C)O)[C@@H](C)O)C(C)C)C(=O)N[C@@H](C)C(=O)N[C@@H](Cc1c[nH]c2ccccc12)C(=O)N[C@@H](CC(C)C)C(=O)N[C@H](C(=O)N[C@@H](CCCCN)C(N)=O)C(C)C [Ab P041] (H-GHGEGTFTSDLSKQLEEEAVQLFIAWLVK-NH2; N-terminus assumed)
	> 10	0.0203	> 10	HGEGTFTSDLSKQCEEERVQLFIEWLKATGPSSGKPPPKPGC-NH2 (disulfide 14-42) [Ab P035]
